According to patent US20090263509A1, “ANTIBACTERIAL AGENT AND ANTIBACTERIAL COMPOSITION” (SAKAMOTO BIO CO., LTD, priority 2004, published 2009):
≈ marks a conversion by molar mass, not a printed value.

What was measured:
Assay type in all cases: cell-based
[1] = test system: Aspergillus niger (IFO9455 ATCC16401); experiment: Antimicrobial activity, agar medium dilution method (MIC / growth observation); parameters: key to Antibacterial Effect with Specimen Concentration: A: antibacterially effective; B: bacteriostatically active; C: some growth inhibiting effective; D: non effective
Method: (§1) Antimicrobial activity was assayed using the method described below. Paraben was used as a positive control. Staphylococcus aureus (IFO13276 ATCC6538), Candida albicans (IFO1594 ATCC10231), Aspergillus niger (IFO9455 ATCC16401), Pseudomonas aeruginosa (IFO013275 ATCC9027), Escherichia coli (IFO3972 ATCC8739) Antibacterial effect was evaluated by using either qualitative observation of the growing strains in the presence of each specimen or measuring the minimum inhibitory concentration (MIC) of the strains. An agar medium dilution method was adopted for the evaluation using Mueller-Hinton agar media (Eiken Chemical Co., Ltd.). The experiment was performed using the MIC test method following the standards of the Japanese Society of Chemotherapy. More specifically, each specimen was measured, when dissolved in 50/50 ethanol/water mixture and used to prepare 1 mL of each test specimen. 9 mL of measuring medium was added to the test specimens to create an agar plate. […] of the experimental bacterial liquid (live bacteria: 10^6-10^8/mL) was added to the agar plate. The growth and development of the bacteria was judged and recorded after it was cultured for 24 hours at 37° C. The minimum concentration that inhibited bacterial growth was regarded as MIC. The evaluation results of Example 1 are shown in Table 1 (MIC Rate) and Table 2 (Antibacterial Effect with Specimen Concentration). The MIC rates in Table 1 are given in μg/ml. […] The meaning of the symbols used in Table 2 is as follows: A: antibacterially effective, B: bacteriostatically active, C: some growth inhibiting effective, D: non effective.

[2] = test system: Staphylococcus aureus (IFO13276 ATCC6538); experiment: as above; parameters: key to Antibacterial Effect with Specimen Concentration: A: antibacterially effective; B: bacteriostatically active; C: some growth inhibiting effective; D: non effective
Method: as §1

[3] = test system: Candida albicans (IFO1594 ATCC10231); experiment: as above; parameters: key to Antibacterial Effect with Specimen Concentration: A: antibacterially effective; B: bacteriostatically active; C: some growth inhibiting effective; D: non effective
Method: as §1

[4] = test system: Pseudomonas aeruginosa (IFO013275 ATCC9027); experiment: Antimicrobial activity, agar medium dilution method (MIC); conditions: Mueller-Hinton agar, 24 hours at 37° C.
Method: (§2) Antimicrobial activity was assayed using the method described below. Paraben was used as a positive control. Staphylococcus aureus (IFO13276 ATCC6538), Candida albicans (IFO1594 ATCC10231), Aspergillus niger (IFO9455 ATCC16401), Pseudomonas aeruginosa (IFO013275 ATCC9027), Escherichia coli (IFO3972 ATCC8739) Antibacterial effect was evaluated by using either qualitative observation of the growing strains in the presence of each specimen or measuring the minimum inhibitory concentration (MIC) of the strains. An agar medium dilution method was adopted for the evaluation using Mueller-Hinton agar media (Eiken Chemical Co., Ltd.). The experiment was performed using the MIC test method following the standards of the Japanese Society of Chemotherapy. More specifically, each specimen was measured, when dissolved in 50/50 ethanol/water mixture and used to prepare 1 mL of each test specimen. 9 mL of measuring medium was added to the test specimens to create an agar plate. […] of the experimental bacterial liquid (live bacteria: 10^6-10^8/mL) was added to the agar plate. The growth and development of the bacteria was judged and recorded after it was cultured for 24 hours at 37° C. The minimum concentration that inhibited bacterial growth was regarded as MIC. The evaluation results of Example 1 are shown in Table 1 (MIC Rate) and Table 2 (Antibacterial Effect with Specimen Concentration). […]

[5] = test system: Escherichia coli (IFO3972 ATCC8739); experiment: as above; conditions: Mueller-Hinton agar, 24 hours at 37° C.
Method: as §2

[6] = specimen concentration 50 μg/ml
[7] = specimen concentration 500 μg/ml
[8] = Mueller-Hinton agar, 24 hours at 37° C.

SMILES | Antibacterial Effect with Specimen Concentration [1, 6] | Antibacterial Effect with Specimen Concentration [1, 7] | Antibacterial Effect with Specimen Concentration [2, 6] | Antibacterial Effect with Specimen Concentration [2, 7] | Antibacterial Effect with Specimen Concentration [3, 6] | Antibacterial Effect with Specimen Concentration [3, 7] | MIC [1, 8] | MIC [2, 8] | MIC [3, 8] | MIC [4] | MIC [5]
COc1cc(O)c(OC)c(OC)c1C1COc2cc(O)ccc2C1 (centres unmarked) | C | A | D | C | C | C | – | – | – | – | –
O=C(O)c1ccc(O)cc1 [Paraben, reference compound] | – | – | – | – | – | – | 300 µg/mL (≈ 2.17 mM) | 800 µg/mL (≈ 5.79 mM) | 500 µg/mL (≈ 3.62 mM) | 1000 µg/mL (≈ 7.24 mM) | 800 µg/mL (≈ 5.79 mM)
COc1ccc(C2COc3cc(O)ccc3C2)c(OC)c1O (single isomer, unassigned) [Mucronulatol, mucronulatol] | C | A | A | A | C | A | – | – | – | – | –
COC1=C(OC)C(=O)C(C2COc3cc(O)ccc3C2)=CC1=O (centres unmarked) [Pendulone, pendulone] | C | A | A | A | C | A | – | – | – | – | –
COC1=C(OC)C(=O)C(C2COc3c(ccc(O)c3OC)C2)=CC1=O (single isomer, unassigned) [Amorphaquinone, amorphaquinone] | C | A | A | A | B | A | – | – | – | – | –
